According to patent publication US20140371305A1, “Mupirocin Antibiotic Composition” (PROFESSIONAL COMPOUNDING CENTERS OF AMERICA, priority 2013, published 2014):

Tests used:
Pseudomonas aeruginosa = test: Minimum inhibitory concentration (MIC) test; assay type: cell-based; details: mupirocin combined with micronized poloxamer composition 202 (poloxamer 188 and poloxamer 407)
Description: (§1) “Minimum Inhibitory Concentration (MIC)” may refer to the lowest concentration of an antimicrobial that may inhibit the visible growth of a microorganism after overnight incubation.
(§2) Moreover, micronized poloxamer composition 202 may enhance mupirocin's properties by lowering the minimum inhibitory concentration (MIC) to about […]. The MIC was tested against microorganisms such as Pseudomonas aeruginosa, and Methicillin Resistant Staphylococcus aureus, among others.

[1] = system: Methicillin Resistant Staphylococcus aureus; test: Minimum inhibitory concentration (MIC) test; assay type: cell-based; details: mupirocin combined with micronized poloxamer composition 202 (poloxamer 188 and poloxamer 407)
Description: as §1, §2

Structure (SMILES): C/C(=C\C(=O)OCCCCCCCCC(=O)O)C[C@@H]1OC[C@H](C[C@@H]2O[C@H]2[C@@H](C)[C@H](C)O)[C@@H](O)[C@H]1O [mupirocin]
- minimum inhibitory concentration (MIC) (Pseudomonas aeruginosa): about 1.7 g
- minimum inhibitory concentration (MIC) [1]: about 1.7 g
